Source: patent publication US8957114B2, “Formulations, salts and polymorphs of transnorsertraline and uses thereof” (Sunovion Pharmaceuticals Inc., priority 2009, dated 2015)
Like-named read-outs stand apart in the source and are kept apart here.

Tests used:
[1] = Solubility of transnorsertraline salts in de-ionized water (HPLC); conditions: for pH: saturated solution in de-ionized water; for Solubility in Freebase Equivalents mgA/mL: de-ionized water, ambient, shaken up to nine days until equilibrium
Method: For each salt, saturated solutions with excess solids in deionized water were prepared in 20 mL clear glass scintillation vials with screw caps. All samples were shaken at 300 rpm at ambient conditions for up to nine days until equilibrium was achieved. Solubility was determined using a HPLC method (Table 5).

[2] = Solubility of transnorsertraline salts in aqueous buffer systems (SGF, acetate buffer pH 4.5, SIF; HPLC); format: physicochemical
Method: Saturated solutions with excess solids were prepared in 20 mL clear glass scintillation vials. Simulated gastric fluid (pH 1.0, ˜0.1N HCl, 0.03M NaCl, no enzymes), simulated intestinal fluid (pH 6.8, 0.05M KH2PO4, ˜0.02N NaOH, no enzymes), and acetate buffer (pH 4.5, 0.02M sodium acetate, 0.03M acetic acid) were prepared in accordance with USP28 (USP28 Test Solutions p2855, Volumetric Solutions p2863). […] Solubility was determined using a HPLC method.

[3] = Moisture content by coulometric Karl Fischer titration (KF); format: physicochemical
Method: (§1) Each salt was analyzed by coulometric titration using an EM Scientific Aquastar C3000 titrator to determine water content. […] Each salt was analyzed using a Perkin Elmer TGA 7 Thermal Gravimetric Analyzer (TGA). […] Moisture sorption isotherms for each salt were generated using the VTI SGA-100 Symmetric Vapor Sorption Analyzer. Samples were run as received without pre-analysis drying. Equilibrium criteria were the lesser of 0.01 wt % change in 5 minutes or 180 minutes at each relative humidity (RH) step. […] Analysis was repeated for each sample in consecutive analyses (sample was not removed from analyzer). Sample sizes ranged from 18 mg to 35 mg.

[4] = VTI moisture sorption isotherm (hygroscopicity); format: physicochemical; conditions: 25° C.
Method: as §1

[5] = Thermal gravimetric analysis (TGA) weight loss; format: physicochemical; conditions: heated 25° C. to 325° C. at 10° C./min
Method: The sixteen salts of transnorsertraline of Example 6.14 were analyzed for moisture content and hygroscopicity. Each salt was analyzed by coulometric titration using an EM Scientific Aquastar C3000 titrator to determine water content. Sample size ranged from 18 mg to 134 mg. Each salt was analyzed using a Perkin Elmer TGA 7 Thermal Gravimetric Analyzer (TGA). […] Moisture sorption isotherms for each salt were generated using the VTI SGA-100 Symmetric Vapor Sorption Analyzer. Samples were run as received without pre-analysis drying. Equilibrium criteria were the lesser of 0.01 wt % change in 5 minutes or 180 minutes at each relative humidity (RH) step. Temperature was fixed at 25° C. and the relative humidity steps (25 to 95% to 25%) were in 5% increments. Analysis was repeated for each sample in consecutive analyses (sample was not removed from analyzer). Sample sizes ranged from 18 mg to 35 mg.

[6] = Open dish excipient compatibility study Set 1a/1b (Active 1 with single excipients), 40° C./75% RH, 3 weeks, % impurities; format: physicochemical
Method: A Zorban SB-CN […], 25 cm×4.6 mm analytical column using a 0.05% trifluoroacetic acid in a 80:20 water:acetonitrile solution (Mobile Phase A) followed by a 0.05% trifluoroacetic acid in a 15:85 water:acetonitrile solution (Mobile Phase B) was used. Column temperature: 30° C. The flow rate: 1.0 mL/min. Injection volume: 50 μL. Wavelength: 220 nm. Minimum run time: 50 min (15 min delay). Mobile Phase gradient: […]
Transnorsertraline HCl (1) (“Active 1”) was mixed with each excipient present in 1 mg capsule strength respectively. The samples contained two different ratios (1:1 and as in the 1 mg capsules) of active and excipients.

[7] = saturated solution in 0.05M Acetate Buffer (pH 4.5)
[8] = saturated solution in Simulated Gastric Fluid
[9] = saturated solution in Simulated Intestinal Fluid
[10] = repeated consecutive analysis (second line)
[11] = 0.05M Acetate Buffer (pH 4.5), ambient, up to nine days
[12] = Simulated Gastric Fluid (no enzymes), ambient, up to nine days
[13] = Simulated Intestinal Fluid (pH 6.8, no enzymes), ambient, up to nine days
[14] = Set 1a, active:excipient 1:1, open dish 40° C./75% RH
[15] = Set 1b, active:excipient ratio as in 1 mg capsules, open dish 40° C./75% RH
[16] = first analysis, listed as Acetate lot 1
[17] = first analysis, listed as Acetate lot 2
[18] = first analysis, listed as Acetate lot 3
[19] = repeated consecutive analysis (second line), listed as Acetate lot 1
[20] = repeated consecutive analysis (second line), listed as Acetate lot 2
[21] = repeated consecutive analysis (second line), listed as Acetate lot 3

| VTI Desorp. (% wt loss 95 to 25% RH) ([4]; first analysis) [% wt loss] | VTI Adsorp. (% wt gain 25 to 95% RH) [4, 10] [% wt gain] | VTI Desorp. (% wt loss 95 to 25% RH) [4, 10] [% wt loss] | Molecule | pH [1] | pH [2, 7] | pH [2, 8] | pH [2, 9] | Initial KF (% H2O) [3] [% H2O] | VTI Adsorp. (% wt gain 25 to 95% RH) ([4]; first analysis) [% wt gain] | TGA (% wt loss) [5] [% wt loss] | further results |
| --- | --- | --- | --- | --- | --- | --- | --- | --- | --- | --- | --- |
| 1.37 | 2.14 | 1.20 | Phosphate | 3.27 | 4.55 | 1.24 | 6.49 | 0.16 | 3.00 |  | Solubility in Freebase Equivalents mgA/mL ([2]; pH 1): <0.01 mgA/mL; Solubility in Freebase Equivalents mgA/mL ([2]; pH 4.5): 2.63 mgA/mL; Solubility in Freebase Equivalents mgA/mL ([2]; pH 6.8): 0.27 mgA/mL |
| 1.36 | 1.37 |  | L-tartrate | 2.63 | 4.58 | 1.24 | 6.73 | 0.62 | 3.52 |  |  |
|  |  |  | Transnorsertraline HCl [active 1] |  |  |  |  |  |  |  | % Active [6, 14]: 99.68%; % Impurities, peak RRT 0.764 [6, 14]: 0.05%; % Impurities, peak RRT 0.862, Synthetic Impurity 1 [6, 14]: 0.04%; % Impurities, peak RRT 0.885, Synthetic Impurity 2 [6, 14]: 0.05%; % Impurities, peak RRT 1.07, cis-diastereomer [6, 14]: 0.12%; % Impurities, peak RRT 1.386 [6, 14]: 0.07%; % Total Impurities [6, 14]: 0.33%; impurities formed due to the presence of excipients ([6]; Set 1a, ratio of active to excipient 1:1, 40° C./75% RH): no appreciable impurities formed; % Active [6, 15]: 99.68%; % Impurities, peak RRT 0.764 [6, 15]: 0.05%; % Impurities, peak RRT 0.862, Synthetic Impurity 1 [6, 15]: 0.04%; % Impurities, peak RRT 0.885, Synthetic Impurity 2 [6, 15]: 0.05%; % Impurities, peak RRT 1.07, cis-diastereomer [6, 15]: 0.12%; % Impurities, peak RRT 1.386 [6, 15]: 0.07%; % Total Impurities [6, 15]: 0.33% |
| 0.08 | 0.08 | 0.09 | Transnorsertraline Acetate | 6.31 | 4.79 | 1.26 | 6.63 | 0.03 | 0.07 | 0.53 | Solubility in Freebase Equivalents mgA/mL ([2]; pH 1): 0.07 mgA/mL; Solubility in Freebase Equivalents mgA/mL ([2]; pH 4.5): 3.12 mgA/mL; Solubility in Freebase Equivalents mgA/mL ([2]; pH 6.8): 0.25 mgA/mL; Initial KF (% H2O) ([3]; listed as Acetate lot 1): 0.03 % H2O; Initial KF (% H2O) ([3]; listed as Acetate lot 2): 0.07 % H2O; Initial KF (% H2O) ([3]; listed as Acetate lot 3): 0.05 % H2O; VTI Adsorp. (% wt gain 25 to 95% RH) [4, 16]: 0.07 % wt gain; VTI Desorp. (% wt loss 95 to 25% RH) [4, 16]: 0.08 % wt loss; VTI Adsorp. (% wt gain 25 to 95% RH) [4, 17]: 0.22 % wt gain; VTI Desorp. (% wt loss 95 to 25% RH) [4, 17]: 0.23 % wt loss; VTI Adsorp. (% wt gain 25 to 95% RH) [4, 18]: 0.33 % wt gain; VTI Desorp. (% wt loss 95 to 25% RH) [4, 18]: 0.38 % wt loss; VTI Adsorp. (% wt gain 25 to 95% RH) [4, 19]: 0.08 % wt gain; VTI Desorp. (% wt loss 95 to 25% RH) [4, 19]: 0.09 % wt loss; VTI Adsorp. (% wt gain 25 to 95% RH) [4, 20]: 0.23 % wt gain; VTI Desorp. (% wt loss 95 to 25% RH) [4, 20]: 0.23 % wt loss; VTI Adsorp. (% wt gain 25 to 95% RH) [4, 21]: 0.35 % wt gain; VTI Desorp. (% wt loss 95 to 25% RH) [4, 21]: 0.35 % wt loss; TGA (% wt loss) ([5]; listed as Acetate lot 1): 0.43 % wt loss |
| 0.10 | 0.08 | 0.07 | Benzoate |  |  |  |  | 0.27 | 0.10 | 0.05 |  |
| 3.96 | 3.24 | 3.61 | Citrate |  |  |  |  | 0.31 | 2.59 |  |  |
|  |  |  | N[C@@H]1CC[C@@H](c2ccc(Cl)c(Cl)c2)c2ccccc21.O=C1CC[C@@H](C(=O)O)N1 |  |  |  |  | 0.10 | 17.28 |  |  |
| 9.51 | 7.25 |  | O=S(=O)(O)O [Sulfate] |  |  |  |  | 3.34 | 10.19 | 4.20 |  |

| Molecule | VTI Desorp. (% wt loss 95 to 25% RH) ([4]; first analysis) [% wt loss] | VTI Adsorp. (% wt gain 25 to 95% RH) [4, 10] [% wt gain] | VTI Desorp. (% wt loss 95 to 25% RH) [4, 10] [% wt loss] | pH [1] | pH [2, 7] | pH [2, 8] | pH [2, 9] | Initial KF (% H2O) [3] [% H2O] | VTI Adsorp. (% wt gain 25 to 95% RH) ([4]; first analysis) [% wt gain] | TGA (% wt loss) [5] [% wt loss] | further results |
| --- | --- | --- | --- | --- | --- | --- | --- | --- | --- | --- | --- |
| Tosylate | 0.06 |  |  | 6.16 | 4.56 | 1.10 | 6.78 | 0.09 | 0.06 | 0.16 | Solubility in Freebase Equivalents mgA/mL [1]: 0.53 mgA/mL; Solubility in Freebase Equivalents mgA/mL [2, 11]: 0.63 mgA/mL; Solubility in Freebase Equivalents mgA/mL [2, 12]: 0.06 mgA/mL; Solubility in Freebase Equivalents mgA/mL [2, 13]: 0.21 mgA/mL |
| S-mandelate | 3.95 | 3.79 | 3.02 |  |  |  |  | 0.32 | 3.24 |  |  |
| Succinate | 3.17 |  |  | 3.89 | 4.50 | 1.27 | 6.46 | 1.03 | 3.25 |  |  |
| Fumarate | 0.17 | 0.17 | 0.16 | 5.30 | 4.60 | 1.25 | 6.63 | 0.40 | 0.18 | 0.81 | Solubility in Freebase Equivalents mgA/mL [1]: 0.52 mgA/mL; Solubility in Freebase Equivalents mgA/mL [2, 11]: 0.69 mgA/mL; Solubility in Freebase Equivalents mgA/mL [2, 12]: <0.01 mgA/mL; Solubility in Freebase Equivalents mgA/mL [2, 13]: 0.30 mgA/mL |
| Maleate | 0.09 | 0.08 | 0.08 | 3.98 | 4.52 | 1.25 | 6.47 | 0.06 | 0.10 | 0.02 | Solubility in Freebase Equivalents mgA/mL [1]: 1.88 mgA/mL; Solubility in Freebase Equivalents mgA/mL [2, 11]: 1.23 mgA/mL; Solubility in Freebase Equivalents mgA/mL [2, 12]: 0.08 mgA/mL; Solubility in Freebase Equivalents mgA/mL [2, 13]: 0.28 mgA/mL |
